Data from patent publication US4764528A, “2,4-pentadienoic acid derivatives and platelet aggregation inhibitors containing the same” (Teruo Kabushiki Kaisha, priority 1986, dated 1988).
Like-named read-outs stand apart in the source and are kept apart here.

Legend:
platelet aggregation = experiment: Inhibition of platelet aggregation in rabbit platelet-rich plasma (Born's turbimetry); format: cell-based; settings: Oryctolagus cuniculus
Method: Using a syringe containing 3.8% sodium citrate solution (1 volume), 9 volumes of blood is drawn from the carotid artery of a rabbit. Said blood is centrifuged to give platelet-rich plasma (PRP: 7×10^5 /μl).
In a cuvette is placed 250 ul of said PRP, followed by incubation in a thermostat at 37° C. for 2 min. Then, 20 μl of physiological saline buffer solution of a 2,4-pentadienoic acid derivative to be tested is added, and the mixture is incubated for 3 min. A platelet-aggregation inducer, an arachidonic acid solution, a collagen solution or an ADP solution is then added, and platelet aggregation is measured by the Born's turbimetry (which is described, for example, in Journal of Physiology, vol. 168, p. 178 (1968)). 50% Inhibitory concentration of the platelet aggregation caused by arachidonic acid (60 μmol), collagen (10 μg/ml) or ADP (5 μmol) is shown in Table 5 in comparison with prostaglandin I2, aspirin or dipyridamol.
50% Inhibitory concentration as indicated in Table 5 means the concentration of a 2,4-pentadienoic acid derivative needed for inhibiting the platelet aggregation by 50% by the introduction of said 2,4-pentadienoic acid derivative, taking the platelet aggregation in the absence of 2,4-pentadienoic acid derivatives of the invention as 100%.

[1] = unstable vinylether group in the molecule; cited from earlier work
[2] = aggregation induced by ADP (5 μmol), rabbit PRP, 37° C., 3 min preincubation, read-out: Antiplatelet activity, 50% Inhibitory concentration, ADP
[3] = aggregation induced by arachidonic acid (60 μmol), rabbit PRP, 37° C., 3 min preincubation, read-out: Antiplatelet activity, 50% Inhibitory concentration, Arachidonic acid
[4] = aggregation induced by collagen (10 μg/ml), rabbit PRP, 37° C., 3 min preincubation, read-out: Antiplatelet activity, 50% Inhibitory concentration, Collagen

| SMILES | IC50 (platelet aggregation; [2]) [µM] | IC50 (platelet aggregation; [3]) [µM] | IC50 (platelet aggregation; [4]) [µM] | IC50 (platelet aggregation; read-out: Antiplatelet activity, 50% Inhibitory concentration, ADP) [µM] | IC50 (platelet aggregation; read-out: Antiplatelet activity, 50% Inhibitory concentration, Arachidonic acid) [µM] | IC50 (platelet aggregation; read-out: Antiplatelet activity, 50% Inhibitory concentration, Collagen) [µM] | half life in the living body [1] |
| --- | --- | --- | --- | --- | --- | --- | --- |
| CCCCC[C@H](O)/C=C/[C@@H]1[C@H]2CC(/C=C/C=C/C(=O)O)=C[C@H]2C[C@H]1O [Example 1, 3-(4-carboxy-trans, trans-1,3-butadienyl)-6-exo-(3α-hydroxy-trans-1-octenyl)-7-endo-hydroxybicyclo[3.3.0]oct-2-ene] | 0.52 | 0.47 | 0.32 |  |  |  |  |
| O=C(O)/C=C/C=C/C1=C[C@H]2C[C@@H](O)[C@H](/C=C/[C@@H](O)C3CCCC3)[C@H]2C1 [Example 4] | 0.39 | 0.29 | 0.23 |  |  |  |  |
| CCCCC[C@H](O)/C=C/[C@@H]1[C@H]2CC(C/C=C/C=C/C(=O)O)=C[C@H]2C[C@H]1O [Example 6, 3-(5-carboxy-trans, trans-2,4-pentadienyl)-6-exo-(3α-hydroxy-trans-1-octenyl)-7-endo-hydroxybicyclo[3.3.0]oct-2-ene] | 0.7 | 0.82 | 0.5 |  |  |  |  |
| O=C(O)/C=C/C=C/CC1=C[C@H]2C[C@@H](O)[C@H](/C=C/[C@@H](O)C3CCCC3)[C@H]2C1 [Example 9] | 1.4 | 1.8 | 1.1 |  |  |  |  |
| CC(=O)Oc1ccccc1C(=O)O [aspirin, reference compound] |  |  |  | ≥ 1000 | 17 | 200 |  |
| OCCN(CCO)c1nc(N2CCCCC2)c2nc(N(CCO)CCO)nc(N3CCCCC3)c2n1 [dipyridamol, reference compound] | 470 | ≥ 1000 |  |  |  |  |  |
| CCCCC[C@H](O)/C=C/[C@@H]1[C@H]2C/C(=C/CCCC(=O)O)O[C@H]2C[C@H]1O [prostaglandin I2, reference compound] | 0.38 | 0.25 | 0.22 |  |  |  | short |
